We go through 24 compounds from patent publication US20240025880A1 (CHIESI FARMACEUTICI S.P.A., priority 2020, published 2024).

This test deals with T1, h P2X3 (Homo sapiens, UniProt P56373).
T1 sequence (P56373 1-397): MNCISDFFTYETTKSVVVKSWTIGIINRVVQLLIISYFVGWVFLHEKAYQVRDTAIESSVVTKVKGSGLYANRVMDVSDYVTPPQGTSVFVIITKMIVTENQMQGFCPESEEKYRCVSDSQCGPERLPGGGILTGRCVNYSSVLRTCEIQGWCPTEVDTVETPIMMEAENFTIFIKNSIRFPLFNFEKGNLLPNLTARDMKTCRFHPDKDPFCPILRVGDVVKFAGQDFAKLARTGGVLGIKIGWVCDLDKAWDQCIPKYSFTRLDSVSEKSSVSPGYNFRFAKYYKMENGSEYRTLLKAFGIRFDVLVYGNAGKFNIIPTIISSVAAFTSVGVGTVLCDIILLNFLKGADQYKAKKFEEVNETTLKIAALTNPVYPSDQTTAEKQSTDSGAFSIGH
Kind of test: In vitro electrophysiology assay for P2X3 (automated whole-cell patch clamp, α,β-MeATP agonist). In kind it is cell-based. Conditions: Table 2; 800 nM α,β-MeATP, peak current; read-out: h P2X3 (pIC50 range of activity) (converted). On the procedure:
In Vitro Electrophysiology Assay for P2X3
Cells expressing P2X3 receptors were grown according to standard practice and maintained at 37° C. in a 5% humidified CO2 atmosphere. The cells were seeded into T175 flask 2 days prior to the day of the assay and dissociated from the flasks using TrypLE when grown to confluence of 80-90%. The dissociated cells were resuspended in serum free media at a cell density of 3×10^6 cells/ml and loaded onto the Sophion Qube automated patch-clamp system. The extracellular assay buffer contained 145 mM NaCl, 4 mM KCl, 2 mM CaCl2, 1 mM MgCl2, 10 mM HEPES, and 10 mM glucose at pH 7.4. The intracellular assay solution contained 140 mM CsF, 10 mM NaCl, 10 mM EGTA, 10 mM HEPES at pH 7.2. Agonist stock solutions were prepared in H2O and diluted in bath solution prior to use. All antagonists were prepared as 10 mM stock solutions in DMSO and diluted in bath solution prior to use. All experiments were performed under the whole-cell patch clamp configuration at room temperature with 384 individual cells being voltage clamped at −60 mV simultaneously on the Sophion Qube instrument. Two baseline responses were established with the application of α,β-MeATP (800 nM), with the subsequent agonist applications being washed out using extracellular assay buffer containing 0.5 U/ml apyrase. Following the second agonist application, antagonist was incubated in the absence of α,β-MeATP for 10 minutes. After antagonist preincubation, 800 nM α,β-MeATP and antagonist were co-administered to determine the inhibitory effect of the antagonist. One concentration of an antagonist was assessed against a single cell, with different concentrations of the antagonist applied to other cells on the 384 recording substrate. The control P2X3 current amplitude was taken from the peak current amplitude from the second agonist response prior to preincubation with antagonist. The peak P2X3 current amplitude in the presence of antagonist was used to calculate the inhibitory effect at each concentration of the antagonist according to the following equation:
Percentage inhibition of P2X3=(P2X3 control peak amplitude−P2X3 antagonist peak amplitude)/P2X3 control peak amplitude)*100
Concentration-response curves were constructed from ten different concentrations with each concentration of antagonist tested on at least two individual cells. The concentration of the antagonist to inhibit P2X3 current by 50% (IC50) was determined by fitting the data with the following equation:
Y=a+[(b−a)/(1+10^((log c−x)d)]
Where ‘a’ is minimum response, ‘b’ is maximum response, ‘c’ is IC50 and ‘d’ is Hill slope.

Consider `C[C@@H](Nc1ncnc2c(OCc3cc(O)no3)cc(-c3ccc(F)cc3)cc12)c1cnc(C(F)(F)F)nc1` [Example 38, (R)-5-(((6-(4-fluorophenyl)-4-((1-(2-(trifluoromethyl)pyrimidin-5-yl)ethyl)amino)quinazolin-8-yl)oxy)methyl)isoxazol-3-ol], for which the IC50 is less than 316 nM.
The same measure for `C[C@@H](Nc1ncnc2c(OCC(=O)O)cc(-c3ccc(F)cc3)cc12)c1cnc(C(F)(F)F)nc1` [Example 39, (R)-2-((6-(4-fluorophenyl)-4-((1-(2-(trifluoromethyl)pyrimidin-5-yl)ethyl)amino)quinazolin-8-yl)oxy)acetic acid]: less than 316 nM; for `C[C@@H](Nc1ncnc2c(OCC(=O)NS(=O)(=O)c3ccccc3)cc(-c3ccc(F)cc3)cc12)c1cnc(C(F)(F)F)nc1` [Example 40, (R)-2-((6-(4-fluorophenyl)-4-((1-(2-(trifluoromethyl)pyrimidin-5-yl)ethyl)amino)quinazolin-8-yl)oxy)-N-(phenylsulfonyl)acetamide]: less than 316 nM.
The value for `C[C@@H](Nc1ncnc2c(OCC3(C(=O)O)CC3)cc(-c3ccc(F)cc3)cc12)c1cnc(C(F)(F)F)nc1` [Example 41, (R)-1-(((6-(4-fluorophenyl)-4-((1-(2-(trifluoromethyl)pyrimidin-5-yl)ethyl)amino)quinazolin-8-yl)oxy)methyl)cyclopropane-1-carboxylic acid] was 316 to 3160 nM.
The same measure for `C[C@@H](Nc1ncnc2c(OCC(=O)NC3(C(=O)O)CC3)cc(-c3ccc(F)cc3)cc12)c1cnc(C(F)(F)F)nc1` [Example 44, (R)-1-(2-((6-(4-fluorophenyl)-4-((1-(2-(trifluoromethyl)pyrimidin-5-yl)ethyl)amino)quinazolin-8-yl)oxy)acetamido)cyclopropane-1-carboxylic acid]: 316 to 3160 nM.
On to `Cc1ccc(CNc2ncnc3c(OCC(=O)N[C@H]4CCC[C@H]4C(=O)O)cc(-c4ccc(F)cc4)cc23)nn1` [Example 45, (1R,2S)-2-(2-((6-(4-fluorophenyl)-4-(((6-methylpyridazin-3-yl)methyl)amino)quinazolin-8-yl)oxy)acetamido)cyclopentane-1-carboxylic acid], for which the IC50 was less than 316 nM.
The same measure for `CCOC(=O)[C@H]1CCC[C@H]1NC(=O)COc1cc(-c2ccc(F)cc2)cc2c(NCc3ccc(C)nn3)ncnc12` [Example 46, Ethyl (1S,2R)-2-(2-((6-(4-fluorophenyl)-4-(((6-methylpyridazin-3-yl)methyl)amino)quinazolin-8-yl)oxy)acetamido)cyclopentane-1-carboxylate]: 316 to 3160 nM; for `C[C@@H](Nc1ncnc2c(OCC3(C(=O)O)CCCCC3)cc(-c3ccc(F)cc3)cc12)c1cnc(C(F)(F)F)nc1` [Example 48, (R)-1-(((6-(4-fluorophenyl)-4-((1-(2-(trifluoromethyl)pyrimidin-5-yl)ethyl)amino)quinazolin-8-yl)oxy)methyl)cyclohexane-1-carboxylic acid]: 316 to 3160 nM.
The same measure for `Cc1cnc(-c2cc(OCC(=O)NS(=O)(=O)c3ccccc3)c3ncnc(NCc4ccc(C)nn4)c3c2)nc1` [Example 49, Ammonium (2-((4-(((6-methylpyridazin-3-yl)methyl)amino)-6-(5-methylpyrimidin-2-yl)quinazolin-8-yl)oxy)acetyl)(phenylsulfonyl) amide]: less than 316 nM; for `Cc1ccc(CNc2ncnc3c(OCC4(C)COC4)cc(-c4ccc(F)cc4)cc23)nn1` [Example 50, 6-(4-fluorophenyl)-8-[(3-methyloxetan-3-yl)methoxy]-N-[(6-methylpyridazin-3-yl)methyl]quinazolin-4-amine]: less than 316 nM.
As for `Cc1ccc(CNc2ncnc3c(OCC4(C(F)(F)F)CC4)cc(-c4ccc(F)cc4)cc23)nn1` [Example 51, 6-(4-fluorophenyl)-N-[(6-methylpyridazin-3-yl)methyl]-8-[[1-(trifluoromethyl)cyclopropyl]methoxy]quinazolin-4-amine], the IC50 is 316 to 3160 nM.
The value for `Cc1ccc(CNc2ncnc3c(OC4CN(C(=O)OC(C)(C)C)C4)cc(-c4ccc(F)cc4)cc23)nn1` [Example 52, tert-butyl 3-[6-(4-fluorophenyl)-4-[(6-methylpyridazin-3-yl)methylamino]quinazolin-8-yl]oxyazetidine-1-carboxylate] was 316 to 3160 nM.
The same measure for `Cc1ccc(CNc2ncnc3c(OCC#N)cc(-c4ccc(F)cc4)cc23)nn1` [Example 53]: less than 316 nM.
The same measure for `CON(C)C(=O)COc1cc(-c2ccc(F)cc2)cc2c(NCc3ccc(C)nn3)ncnc12` [Example 54, 2-[6-(4-fluorophenyl)-4-[(6-methylpyridazin-3-yl)methylamino]quinazolin-8-yl]oxy-N-methoxy-N-methyl-acetamide]: less than 316 nM.
As to `Cc1ccc(CNc2ncnc3c(OCCOCCO)cc(-c4ccc(F)cc4)cc23)nn1` [Example 55], the IC50 was less than 316 nM.
`Cc1ccc(CNc2ncnc3c(OC4CCN(C)C4=O)cc(-c4ccc(F)cc4)cc23)nn1` (stereo not drawn) [Example 56, 3-[6-(4-fluorophenyl)-4-[(6-methylpyridazin-3-yl)methylamino]quinazolin-8-yl]oxy-1-methyl-pyrrolidin-2-one]: the IC50 was 316 to 3160 nM.
The same measure for `Cc1ccc(CNc2ncnc3c(OCc4ncco4)cc(-c4ccc(F)cc4)cc23)nn1` [Example 57, 6-(4-fluorophenyl)-N-[(6-methylpyridazin-3-yl)methyl]-8-(oxazol-2-ylmethoxy)quinazolin-4-amine]: less than 316 nM; for `Cc1ccc(CNc2ncnc3c(OCc4noc(C)n4)cc(-c4ccc(F)cc4)cc23)nn1` [Example 58, 6-(4-fluorophenyl)-8-[(5-methyl-1,2,4-oxadiazol-3-yl)methoxy]-N-[(6-methylpyridazin-3-yl)methyl]quinazolin-4-amine]: less than 316 nM.
The value for `CCc1noc(COc2cc(-c3ccc(F)cc3)cc3c(NCc4ccc(C)nn4)ncnc23)n1` [Example 59, 8-[(3-ethyl-1,2,4-oxadiazol-5-yl)methoxy]-6-(4-fluorophenyl)-N-[(6-methylpyridazin-3-yl)methyl]quinazolin-4-amine] was less than 316 nM; that for `Cc1ccc(CNc2ncnc3c(OCc4nnc(C5CC5)s4)cc(-c4ccc(F)cc4)cc23)nn1` [Example 60, 8-[(5-cyclopropyl-1,3,4-thiadiazol-2-yl)methoxy]-6-(4-fluorophenyl)-N-[(6-methylpyridazin-3-yl)methyl]quinazolin-4-amine] was less than 316 nM.
Take `Cc1ccc(CNc2ncnc3c(OCC(=O)NCC(F)(F)F)cc(-c4ccc(F)cc4)cc23)nn1` [Example 61, 2-[6-(4-fluorophenyl)-4-[(6-methylpyridazin-3-yl)methylamino]quinazolin-8-yl]oxy-N-(2,2,2-trifluoroethyl)acetamide]: the IC50 is 316 to 3160 nM.
The value for `Cc1ccc(CNc2ncnc3c(OC4COC4)cc(-c4ccc(F)cc4)cc23)nn1` [Example 63, 6-(4-fluorophenyl)-N-((6-methylpyridazin-3-yl)methyl)-8-(oxetan-3-yloxy)quinazolin-4-amine] was 316 to 3160 nM; that for `COC(=O)N1CCC(COc2cc(-c3ccc(F)cc3)cc3c(NCc4ccc(C)nn4)ncnc23)CC1` [Example 64, Methyl 4-[[6-(4-fluorophenyl)-4-[(6-methylpyridazin-3-yl)methylamino]quinazolin-8-yl]oxymethyl]piperidine-1-carboxylate] was 316 to 3160 nM.
The value for `COC(=O)N1CCCC(COc2cc(-c3ccc(F)cc3)cc3c(NCc4ccc(C)nn4)ncnc23)C1` (stereo not drawn) [Example 66, Methyl 3-[6-(4-fluorophenyl)-4-[(6-methylpyridazin-3-yl)methylamino]quinazolin-8-yl]oxymethyl]piperidine-1-carboxylate] was 316 to 3160 nM.
